Test systems include M14 melanoma; RXF 393 renal; HS 578T breast; SK-OV-3 ovarian; TK-10 renal; CAKI-1 renal; DU-145 prostate; SK-MEL-5 melanoma; A498 renal; NCI-H226 lung; UACC-257 melanoma; MDA-MB-435.
Assay in all cases: growth of human tumour cells (NCI), 48 h

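Compound exposure: 48 hours, 5 concentrations, 96-well plates. The concentration for 50% growth inhibition is given as GI50. TGI: total growth inhibition.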

Consider `N=C(N)c1ccc(-c2ccc(-c3ccc(F)cc3)s2)s1`, for which the GI50 with M14 melanoma is 1.89 µM; with RXF 393 renal it was 1.75 µM; with HS 578T breast it was 2.19 µM; in the experiment with SK-OV-3 ovarian, 1.8 µM; in the experiment with TK-10 renal, 1.72 µM; in the experiment with CAKI-1 renal, 1.68 µM. Besides, the GI50 in the experiment on DU-145 prostate is 1.72 µM; in the experiment on SK-MEL-5 melanoma, 1.81 µM; in the experiment on A498 renal, 1.95 µM; in the experiment with NCI-H226 lung it was 14.2 µM; in the experiment with UACC-257 melanoma, 2.19 µM; with MDA-MB-435, 1.59 µM. Moreover, the TGI in the experiment with M14 melanoma was found to be 3.4 µM; in the experiment on RXF 393 renal, 3.34 µM; with HS 578T breast, 4.85 µM; with SK-OV-3 ovarian, 3.57 µM; with TK-10 renal, 3.14 µM; with CAKI-1 renal it was 3.08 µM. The TGI is 3.19 µM in the experiment on DU-145 prostate; 3.2 µM in the experiment with SK-MEL-5 melanoma; 4.65 µM in the experiment on A498 renal; 54.2 µM in the experiment with NCI-H226 lung; 4.15 µM in the experiment with UACC-257 melanoma; 2.93 µM with MDA-MB-435.

The values above are taken from PubChem BioAssay (NCI).
